Laboratory results reported in patent publication US4376768A, “Benzothiazine derivative” (priority 1980, dated 1983).
Where two headings read alike, the source gives them in different places.

Assays:
[1] = tested on: carrageenin-induced edema; assay: Duration of anti-inflammatory activity (carrageenin edema at varied premedication times); type: in vivo, male rats of the Wistar strain; conditions: for Rate of suppression of edema in rats premedicated at various times: Table 3, dose = ED50
From the text: The premedication time was defined as the time interval between the administration of a test compound and the injection of carrageenin.

[2] = tested on: gastric disorders (erosion); assay: Incidence of gastric disorders (erosion) in rats; type: in vivo, male rats of the Wistar strain; conditions: Table 1; rats, oral
From the text: (§1) Six hours later, each rat was sacrificed by decapitation.

[3] = tested on: mice; assay: in vivo; type: in vivo; conditions: Table 5; for LD50: observed for 7 days; for Number of deaths / total number of test animals: p.o.
[4] = in vivo; conditions: for selectivity ratio: rat, in vivo, po
Experimental: (§2) Anti-inflammatory activity was tested as follows: Male rats of the Wistar strain were used in groups of 7. A test compound was suspended in a 0.2% carboxymethyl cellulose solution and orally administered in a dose of 0.5 ml/100 g of body weight. […] Three hours after injection of carrageenin, each rat was sacrificed by ether. The feet of both hind legs were amputated at the ankle joint and weighed to detect the difference in weight between both feet. Then, the ability of the test compound to suppress the carrageenin-induced edema was evaluated by comparing the foot weight difference of the test group with that of a control group (consisting of rats to which the solvent alone was administered). Specifically, the rate of suppression of the edema was calculated according to the following equation: [formula]
The incidence of gastric disorders in rats was tested as follows: Eight-weeks-old male rats of the Wistar strain were used in groups of 5 to 7. After they were fasted for 18 hours or more, a test compound was administered orally. Six hours later, each rat was sacrificed by decapitation. The stomach was removed, filled with 10 ml of physiological saline, and then fixed in 5% formalin. After about 10 minutes, the stomach was incised through the greater curvature and the presence or absence of gastric disorders (in particular, erosion) was examined by visual observation. According to Litchfield-Wilcoxon's method, the dose causing erosion to occur in 50% of the test animals, UD50, was calculated on an all-or-none basis.

[5] = Safety margin LD50/ED50; conditions: for Safety margin, LD50/ED50: Table 1
Experimental: as §2
A test compound was suspended in a 0.2% carboxymethyl cellulose solution and orally administered in a dose of 0.1 ml/10 g of body weight. […] The LD50 value was calculated on the basis of the death rates on the final day.

[6] = prior art, in words; cited from earlier work
[7] = tested on: carrageenin-induced edema; assay: Anti-inflammatory activity: suppression of carrageenin-induced edema in the rat hind foot; type: in vivo, male rats of the Wistar strain
[8] = Incidence of gastric disorders (erosion) in rats; type: in vivo, male rats of the Wistar strain; conditions: rat, in vivo, po
From the text: as §1

[9] = in vivo; type: in vivo; conditions: mouse, in vivo; Table 1; mice, oral, 7 days; read-out: Acute toxicity, LD50
[10] = in words, among the compounds of Table 1

Row | SMILES | Rate of suppression of edema in rats premedicated at various times ([1]; premedication 48 hr.) [%] | LD50 [3] | selectivity ratio [4] | Safety margin compared with indomethacin and diclofenac ([5]; in words) | Rate of suppression of edema in rats premedicated at various times ([1]; premedication 1 hr.) [%] | Rate of suppression of edema in rats premedicated at various times ([1]; premedication 3 hr.) [%] | Rate of suppression of edema in rats premedicated at various times ([1]; premedication 6 hr.) [%] | Rate of suppression of edema in rats premedicated at various times ([1]; premedication 24 hr.) [%] | other results
1 | CN1C(C(=O)Nc2nccs2)C(=O)c2ccccc2S1(=O)=O (centres unmarked) [Sudoxicam, 3,4-dihydro-2-methyl-4-oxo-N-(2-thiazolyl)-2H-1,2-benzothiazine-3-carboxamide 1,1-dioxide] | -2.4 | 500 mg/kg, p.o. | 2.3 | superior | – | – | – | – | Gastric disorders, UD50 [2]: 11.8 mg/kg; Therapeutic index compared with indomethacin and diclofenac ([4]; in words): superior; Safety margin, LD50/ED50 [5]: 98; Anti-inflammatory activity [6]: potent and long-lasting; Degree of toxicity and incidence of gastric disorders compared with indomethacin and diclofenac [6]: not appreciably different
2 | CN1C(C(=O)Nc2cccc(Cl)n2)C(=O)c2ccccc2S1(=O)=O (centres unmarked) [Compound of formula (1), N-(6-chloro-2-pyridyl)-3,4-dihydro-2-methyl-4-oxo-2H-1,2-benzothiazine-3-carboxamide 1,1-dioxide] | 9.8 | – | 30.8 | superior | 55.7 | 54.9 | 48.3 | 22.6 | inhibition in vivo at 2 mg/kg ([7]; Rattus norvegicus, po, 3 h, Table 2, 2.0 mg/kg, p.o., read-out: Rate of suppression of edema): 19.4%; inhibition in vivo at 4 mg/kg ([7]; Rattus norvegicus, po, 3 h, Table 2, 4.0 mg/kg, p.o., read-out: Rate of suppression of edema): 43.6%; inhibition in vivo at 8 mg/kg ([7]; Rattus norvegicus, po, 3 h, Table 2, 8.0 mg/kg, p.o., read-out: Rate of suppression of edema): 50.6%; inhibition in vivo at 16 mg/kg ([7]; Rattus norvegicus, po, 3 h, Table 2, 16.0 mg/kg, p.o., read-out: Rate of suppression of edema): 71%; ED50 ([7]; Rattus norvegicus, po, read-out: Dose producing 50% suppression, ED50, Table 2, carrageenin 1 h after compound, read 3 h later): 6.5 mg/kg; ED50 ([7]; Table 1, rat carrageenin edema, oral, read-out: Anti-inflammatory activity, ED50): 6.5 mg/kg; Anti-inflammatory activity ([7]; in words): potent and long-lasting; Rate of suppression of edema in rats premedicated at various times ([1]; premedication 12 hr.): 40.3%; Duration of anti-inflammatory activity ([1]; in words): excellent; TD50 at 6 h [8]: 200 mg/kg; LD50 at 168 h [9]: 4000 mg/kg; Number of deaths / total number of test animals ([3]; 1,000 mg/kg): 0/5; Number of deaths / total number of test animals ([3]; 3,000 mg/kg): 2/5; Number of deaths / total number of test animals ([3]; 5,000 mg/kg): 3/5; Therapeutic index compared with indomethacin and diclofenac ([4]; in words): superior; Therapeutic index [4, 10]: remarkably high; selectivity ratio ([5]; in vivo, po): 615; Degree of safety ([5]; in words): very high degree of safety; Safety margin [5, 10]: remarkably high
3 | COc1ccc2c(c1)c(CC(=O)O)c(C)n2C(=O)c1ccc(Cl)cc1 [Indomethacin] | – | – | 1.2 | – | 49.4 | 57.6 | 29.4 | -3.5 | Rate of suppression of edema in rats premedicated at various times ([1]; premedication 12 hr.): 18.8%; Safety margin, LD50/ED50 [5]: 3.7
4 | Cc1cc(NC(=O)C2C(=O)c3ccccc3S(=O)(=O)N2C)no1 (centres unmarked) [Isoxicam, 3,4-dihydro-2-methyl-N-(5-methyl-3-isoxazolyl)-4-oxo-2H-1,2-benzothiazine-3-carboxamide 1,1-dioxide] | 1.1 | 5,000 mg/kg, p.o. | – | superior | – | – | – | – | Anti-inflammatory activity compared with Piroxicam and Sudoxicam [6]: lower
5 | Cc1cccc(NC(=O)C2C(=O)c3ccccc3S(=O)(=O)N2C)n1 (centres unmarked) [6-Methyl-2-pyridyl compound, N-(6-methyl-2-pyridyl)-3,4-dihydro-2-methyl-4-oxo-2H-1,2-benzothiazine-3-carboxamide 1,1-dioxide] | – | – | 1.1 | – | – | – | – | – | –
6 | O=C(O)Cc1ccccc1Nc1c(Cl)cccc1Cl [Diclofenac] | – | – | – | – | 45.9 | 24.7 | 17.6 | -1.2 | –
7 | CN1C(C(=O)Nc2ccccn2)C(=O)c2ccccc2S1(=O)=O (centres unmarked) [Piroxicam, 3,4-dihydro-2-methyl-4-oxo-N-(2-pyridyl)-2H-1,2-benzothiazine-3-carboxamide 1,1-dioxide] | 1.7 | 490 mg/kg, p.o. | – | superior | – | – | 40.0 | – | Anti-inflammatory activity [6]: potent and long-lasting
